Source: patent US10336792B2, “Antimicrobial peptide dendrimers” (priority 2014, dated 2019)
Values after ≈ are worked out from the molar mass of the structure shown. Like-named read-outs stand apart in the source and are kept apart here. Positions of bridges follow the written chain, without caps; N, C: chain ends. Non-standard residues stand in square brackets, D forms with d. Residues, ends and D or L forms follow the SMILES beside them. Groups on a side chain read outwards from the residue. Chains are numbered I, II in the order given. *: point of attachment. Decanoyl = CCCCCCCCCC(=O)*; Orn = NCCC[C@H](N)C(=O)O; Dab = NCC[C@H](N)C(=O)O

Key:
[1] = tested on: P. aeruginosa PEJ2.6, PEJ9.1, ZEM1.A, ZEM9.A (clinical isolates); format: cell-based, Pseudomonas aeruginosa; conditions: PEJ2.6, PEJ9.1, ZEM1.A, ZEM9.A (clinical isolates)
Procedure: (§1) Antimicrobial activity was assayed against P. aeruginosa PA01 (WT), P. aeruginosa PT1482 (A-), PT1485 (A-B-), PT1149 (A-B-C-algC), PT331 (Z61) (LPS mutants), P. aeruginosa PEJ2.6, PEJ9.1, ZEM1.A, ZEM9.A (clinical isolates from Université de Genève/Centre Médical Universitaire), Burkholderia cenocepacia (B. ceno), Staphylococcus aureus (S. aureus, MRSA strain) and Acinetobacter baumannii (A. baum) (clinical isolates from Université de Genève/Centre Médical Universitaire). To determine the minimal inhibitory concentration (MIC), microdilution broth method was used. A colony of bacteria was grown in MH-medium overnight at 37° C. The samples were prepared as stock solutions of 8 mg mL^−1 in H2O, diluted to the beginning concentration of 32, 64, 128 or 256 μg/mL in 300 μL MH-medium, added to the first well of 96-well microtiterplate (TPP, untreated) and diluted serially by ½. The concentration of the bacteria was quantified by measuring absorbance at 600 nm and diluted to OD600=0.022 in MH-medium. The sample solutions (150 μL) were mixed with 4 μL diluted bacterial suspension with a final inoculation of about of 5×10^5 CFU. The plates were incubated at 37° C. until satisfactory growth (˜18 h). For each test, two columns of the plate were kept for sterility control (SC, broth only) and growth control (GC, broth with bacterial inoculums, no antibiotics). The minimal inhibitory concentration (MIC) was defined as the lowest concentration of the antimicrobial substance (peptide dendrimer) that inhibited visible growth of the tested bacteria with the unaided eye. For microbiological study Polymyxin was used as references.
(§2) Ten of the most promising compounds (FIG. 5) were tested for their efficiency against four clinical isolates of P. aeruginosa (ZEM9.A, ZEM1.A, PEJ2.6, PEJ9.1), one S. aureus (COL, MRSA reference strain) and one A. baumannii strain. For the experiments in Genève the peptide dendrimers and reference compounds (polymyxin) were dissolved in PBS and the assay was carried out in Müller-Hinton (MH) broth with a two-fold dilution.

[2] = tested on: Staphylococcus aureus (COL, MRSA reference strain); format: cell-based; conditions: COL, reference strain
Procedure: as §1, §2

Acinetobacter baumannii = format: cell-based
Procedure: as §1, §2

PAO1 = format: cell-based, Pseudomonas aeruginosa; conditions: PAO1
Procedure: as §1

P. aeruginosa PA01 (WT) = format: cell-based, Pseudomonas aeruginosa; conditions: WT
Procedure: as §1

[3] = tested on: human red blood cells (hRBC); assay: Haemolysis assay, minimal haemolytic concentration (MHC); format: cell-based; conditions: hRBC in PBS pH 7.4, 4 h, room temperature
Procedure: To determine the minimal haemolytic concentration (MHC) stock solutions of 8 mg/mL of the peptide dendrimers in H2O were prepared and 50 μL were diluted serially by ½ in 50 μL PBS (pH 7.4) in 96-well plate (Cornstar or Nunc, polystyrene, untreated). Human red blood cells (hRBC) were obtained by centrifuging 1.5 mL of whole blood from friendly donors at 3000 rpm for 15 minutes. Plasma was discarded and the pellet was re-suspended in a 15 mL falcon tube up to 5 mL of PBS. The washing was repeated three times and the remaining pellet was re-suspended in 10 mL of PBS at a final hRBC concentration of 5%. The hRBC suspension (50 μL) was added to each well and the plate was incubated at room temperature for 4 hours. Minimal haemolytic concentration (MHC) end points were determined by visual inspection of the wells after the incubation period. Controls on each plate included a blank medium control (50 μl PBS+50 μl of hRBC suspension) and a haemolytic activity control (mQ-deionized water 50 μL+50 μL hRBC suspension).
MIC (minimal inhibitory concentration) and MHC (minimal haemolytic concentration, determined on human red blood cells (hRBC)) values are given in μg/mL. When no detectable haemolytic activity was observed, the last measured concentration was used for calculation of the therapeutic index. TI (therapeutic index)=MHC (μg/ml)/geometric mean of MIC (μg/ml). Larger values indicate greater antimicrobial specificity.

[4] = tested on: Escherichia coli (strain DH5α); format: cell-based
Procedure, shortened: (§3)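 Broth microdilution MIC in LB; overnight cultures diluted to OD600 0.001 and mixed 1:1 with ⅔-serially diluted samples (stock 1 mg mL^−1 in H2O), 37° C for 18-24 h. MTT (0.1%) added; MIC read by eye as lowest concentration inhibiting visible growth (yellow).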

[5] = tested on: Pseudomonas aeruginosa (strain PA01); assay: microbe, parasite or virus in culture; format: cell-based
Procedure, shortened: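 P. aeruginosa PAO1 grown overnight in LB, diluted to OD600 0.001 and mixed with ⅔-step peptide dilutions, then incubated at 37 °C for 18–24 h. After MTT staining, the lowest concentration with no visible growth was read by eye as the MIC.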

[6] = tested on: Bacillus subtilis (strain BR151); format: cell-based
Procedure, shortened: as §3

male wistar rats = assay: In-vivo toxicity study, single i.v. injection; set-up: species or system rat
Source text: 4-6 weeks old male wistar rats (weight range 200-500 g) were used in toxicity experiments. Rats were obtained from Zentrale Tierställe Bern (Department of Clinical Research from University of Bern) and housed 4 per cage. Each experimental group includes two rats. All procedures, care and handling of the animals were reviewed and approved by the Veterinärdienst of Kanton Bern, Schweiz and execute in collaboration with the group of Prof. Hugues Abriel from Department of Clinical Research from University of Bern.
Rats were anesthetized with 4% isoflurane and 1 L/min oxygen in an induction chamber. When the rats were sleeping they were transferred on a clinical drape and anesthetized with 1-2% isoflurane and 0.8 l/min oxygen via a mask. The tail was warmed up with warm water and disinfected with 70% ethanol. The intravenous (i.v.) injections into the tail vein included a single dose of the AMPD of 2 mg/kg rat in 500 μL PBS. Before injection each rat was weighted individually and the exact dosage was determined. All rats, including control groups with no injection and i.v. injection of 500 μL PBS, were monitored for their survival and behavior for two days.
The compounds MSt-112, a 3rd generation AMPD with KL motive, MSt-181 its D-enantiomer analogue, MSt-242, a the 3rd generation with RL motive, and MSt-114 with Tyr instead of Lys in the 3rd generation were used for in vivo experiments with male wistar rats to assess their toxicity. These compounds were selected due to their high potencies and high MHCs values, which are at least 10 times higher than their activities. Each compound (concentration of 2 mg/kg) was applied to two rats by intravenous injection into the tail vein to observe if the AMPDs are well tolerated or may cause adverse effects. The concentration used was approx. 5-10 times higher than the MICs. […] The behaviour of the rats was normal. […] Therefore it seems that rats tolerate AMPDs very well, without visible site effects or even casualties.

[7] = LB medium, serial 2/3 dilution, 37 °C, 18-24 h

CCCCCCCCCC(=O)NCCCC[C@H](NC(=O)[C@H](CC(C)C)NC(=O)[C@H](CCCCN)NC(=O)[C@H](CCCCNC(=O)[C@H](CC(C)C)NC(=O)[C@H](CCN)NC(=O)[C@H](CCCCNC(=O)[C@H](Cc1ccccc1)NC(=O)[C@@H](N)CCCN)NC(=O)[C@H](Cc1ccccc1)NC(=O)[C@@H](N)CCCN)NC(=O)[C@H](CC(C)C)NC(=O)[C@H](CCN)NC(=O)[C@H](CCCCNC(=O)[C@H](Cc1ccccc1)NC(=O)[C@@H](N)CCCN)NC(=O)[C@H](Cc1ccccc1)NC(=O)[C@@H](N)CCCN)C(N)=O [TNS-122, (OrnF)4(KDabL)2(KKLK-CO(CH2)8CH3] (I: H-[Orn]FK([Phe-Orn])[Dab]LKKLK(Decanoyl)-NH2 / II: H-[Orn]FK([Phe-Orn])[Dab]L; amide I:6-II:C; N-terminus assumed)
MIC P. aeruginosa MDR clinical isolate PEJ2.6 [1]: 4 µg/mL (≈ 1.67 µM) | MIC P. aeruginosa MDR clinical isolate PEJ9.1 [1]: 32 µg/mL (≈ 13.3 µM) | MIC P. aeruginosa MDR clinical isolate ZEM1A [1]: 4 µg/mL (≈ 1.67 µM) | MIC P. aeruginosa MDR clinical isolate ZEM9A [1]: 8 µg/mL (≈ 3.34 µM) | MIC S. aureus COL [2]: 8 to 16 µg/mL | MIC A. baumannii ATCC19606 (Acinetobacter baumannii): 8 to 16 µg/mL | MIC (MH + 30% human serum) (PAO1): 8 µg/mL | MIC (MH) (P. aeruginosa PA01 (WT)): 2 µg/mL (≈ 0.834 µM) | MIC PAO1 (P. aeruginosa PA01 (WT)): 4 (8) μg/mL

(LA)8(KLK)4(KLA)2(KKL) [MSt-120]
MHC (minimal haemolytic concentration) [3]: 584 µg/mL | MIC E. coli DH5α ([4]; LB medium): considerably less active | MIC P. aeruginosa PAO1 [5, 7]: 14 µg/mL

CC(C)C[C@H](NC(=O)[C@H](CCCCN)NC(=O)[C@H](CCCCNC(=O)[C@H](CC(C)C)NC(=O)[C@H](CCCCN)NC(=O)[C@H](CCCCNC(=O)[C@H](CC(C)C)NC(=O)[C@@H](N)CCCCN)NC(=O)[C@H](CC(C)C)NC(=O)[C@@H](N)CCCCN)NC(=O)[C@H](CC(C)C)NC(=O)[C@H](CCCCN)NC(=O)[C@H](CCCCNC(=O)[C@H](CC(C)C)NC(=O)[C@@H](N)CCCCN)NC(=O)[C@H](CC(C)C)NC(=O)[C@@H](N)CCCCN)C(N)=O [Compound G2KL] (I: H-KLK([Leu-Lys])KLKKL-NH2 / II: H-KLK([Leu-Lys])KL; amide I:6-II:C; N-terminus assumed)
MIC P. aeruginosa MDR clinical isolate PEJ2.6 [1]: >64 µg/mL | MIC P. aeruginosa MDR clinical isolate PEJ9.1 [1]: >64 µg/mL | MIC P. aeruginosa MDR clinical isolate ZEM1A [1]: >64 µg/mL | MIC P. aeruginosa MDR clinical isolate ZEM9A [1]: >64 µg/mL | MIC S. aureus COL [2]: >64 µg/mL | MIC A. baumannii ATCC19606 (Acinetobacter baumannii): >64 µg/mL | MIC PAO1 (P. aeruginosa PA01 (WT)): >64 µg/mL

(DabL)8(KDabW)4(KDabW)2(KDabL) [MSt-204]
MHC (minimal haemolytic concentration) [3]: 146 µg/mL | MIC B. subtilis BR151 ([6]; LB medium): 2 µg/mL | MIC E. coli DH5α ([4]; LB medium): 2 µg/mL | MIC P. aeruginosa PAO1 [5, 7]: 3 µg/mL

CC(C)C[C@H](NC(=O)[C@H](CCCCN)NC(=O)[C@H](CCCCNC(=O)[C@H](CC(C)C)NC(=O)[C@H](CCCCN)NC(=O)[C@H](CCCCNC(=O)[C@H](CC(C)C)NC(=O)[C@H](CCCCN)NC(=O)[C@@H](N)CCCCN)NC(=O)[C@H](CC(C)C)NC(=O)[C@H](CCCCN)NC(=O)[C@@H](N)CCCCN)NC(=O)[C@H](CC(C)C)NC(=O)[C@H](CCCCN)NC(=O)[C@H](CCCCNC(=O)[C@H](CC(C)C)NC(=O)[C@H](CCCCN)NC(=O)[C@@H](N)CCCCN)NC(=O)[C@H](CC(C)C)NC(=O)[C@H](CCCCN)NC(=O)[C@@H](N)CCCCN)C(N)=O [MSt-119, (KKL)4(KKL)2(KKL)] (I: H-KKLK([Leu-Lys-Lys])KLKKL-NH2 / II: H-KKLK([Leu-Lys-Lys])KL; amide I:7-II:C)
MHC (minimal haemolytic concentration) [3]: 677 µg/mL | MIC B. subtilis BR151 ([6]; LB medium): 20 µg/mL (≈ 7.68 µM) | MIC P. aeruginosa PAO1 [5, 7]: 3 µg/mL (≈ 1.15 µM)

CC(C)C[C@H](NC(=O)[C@H](CCCNC(=N)N)NC(=O)[C@H](CCCCNC(=O)[C@H](CC(C)C)NC(=O)[C@H](CCCNC(=N)N)NC(=O)[C@H](CCCCNC(=O)[C@H](CC(C)C)NC(=O)[C@H](CCCNC(=N)N)NC(=O)[C@H](CCCCNC(=O)[C@H](CC(C)C)NC(=O)[C@@H](N)CCCNC(=N)N)NC(=O)[C@H](CC(C)C)NC(=O)[C@@H](N)CCCNC(=N)N)NC(=O)[C@H](CC(C)C)NC(=O)[C@H](CCCNC(=N)N)NC(=O)[C@H](CCCCNC(=O)[C@H](CC(C)C)NC(=O)[C@@H](N)CCCNC(=N)N)NC(=O)[C@H](CC(C)C)NC(=O)[C@@H](N)CCCNC(=N)N)NC(=O)[C@H](CC(C)C)NC(=O)[C@H](CCCNC(=N)N)NC(=O)[C@H](CCCCNC(=O)[C@H](CC(C)C)NC(=O)[C@H](CCCNC(=N)N)NC(=O)[C@H](CCCCNC(=O)[C@H](CC(C)C)NC(=O)[C@@H](N)CCCNC(=N)N)NC(=O)[C@H](CC(C)C)NC(=O)[C@@H](N)CCCNC(=N)N)NC(=O)[C@H](CC(C)C)NC(=O)[C@H](CCCNC(=N)N)NC(=O)[C@H](CCCCNC(=O)[C@H](CC(C)C)NC(=O)[C@@H](N)CCCNC(=N)N)NC(=O)[C@H](CC(C)C)NC(=O)[C@@H](N)CCCNC(=N)N)C(N)=O [MSt-242, (RL)8(KRL)4(KRL)2(KRL)] (I: H-RLK([Leu-Arg])RLKRLKRL-NH2 / II: H-RLK([Leu-Arg])RLKRL / III: H-RLK([Leu-Arg])RL / IV: H-RLK([Leu-Arg])RL; amide I:6-IV:C, I:9-II:C, II:6-III:C)
visible effects and behaviour after injection (male wistar rats; 2 mg/kg single i.v. dose into tail vein, two rats): No visible effect | survival rate (male wistar rats; 2 mg/kg single i.v. dose, monitored 2 days): 100% | MIC P. aeruginosa ZEM9.A [1]: > 20 µg/mL | MIC S. aureus (COL, MRSA reference strain) [2]: below 20 μg/mL | MIC B. subtilis BR151 ([6]; strain BR151): 11 µg/mL (≈ 2.22 µM) | MIC E. coli DH5α ([4]; DH5α): 3 µg/mL (≈ 0.606 µM) | MIC P. aeruginosa PAO1 ([5]; strain): 8 µg/mL (≈ 1.61 µM)

(KLL)4(KKLL)2(KKLL) [MIS-02]
MHC (minimal haemolytic concentration) [3]: 15 µg/mL | MIC B. subtilis BR151 ([6]; LB medium): 1 µg/mL | MIC P. aeruginosa PAO1 [5, 7]: 3 µg/mL
